“Also recorded” adds a separate entry of the source.
Legend:
Long-Evans rats = experiment: Corneal damage with 1 N NaOH in rats: weekly follow-up of corneal haze and epithelial closure (photographs, ImageJ); type: in vivo, rat; details: for chemical lesions induced after corneal damage with 1N NaOH: after treatment, different experimentation groups; for corneal haze, significance treated at the fifth week vs. treated at day 0 / epithelial closure, significance treated at the fifth week vs. treated at day 0: fifth week vs day 0; for corneal haze, significance control vs. peptide / epithelial closure, significance control vs. peptide: Student's t-test; for corneal haze / epithelial closure: treated eye vs control eye, topical eye drops, fifth formulation, 1 N NaOH damage; for epithelial closure: fluorescein
Text: In this study, domestic hens (Gallus gallus domesticus) aged between 12 and 16 months were initially used as experimental animals but due to the difficulty of the model, especially in relation to obtaining and handling the animals, it was decided to use Long-Evans rats. Furthermore, it was bibliographically verified that these animals are used for in vivo models for studying corneal fibrosis because they allow to follow the evolution of the damage with more precision since they are pigmented rats and, like humans, have a Bowman's membrane.
Male Long-Evans rats aged 10 weeks were used, divided into 5 groups: • Group 1: 12 rats, 6 treated with dexamethasone and 6 treated with mitomycin C. • Group 2: 12 rats, 6 treated with p17 of the first formulation (see section 1.1.2.b) and 6 treated with p144 of the first formulation (see section 1.1.2.b). • Group 3: 12 rats, 6 treated with p17 of the second formulation (see section 1.1.2.b) and 6 treated with p144 of the second formulation (see section 1.1.2.b). • Group 4: 12 rats, 6 treated with p17 of the third formulation (see section 1.1.2.b) and 6 treated with p144 of the third formulation (see section 1.1.2.b). • Group 5: 12 rats, 6 treated with p17 of the fourth formulation (see section 1.1.2.b) and 6 treated with p144 of the fourth formulation (see section 1.1.2.b). • Group 6: 12 rats, 6 treated with p17 of the fifth formulation (see section 1.1.2.b) and 6 treated with p144 of the fifth formulation (see section 1.1.2.b).
To perform the damage in the cornea, the animals were anesthetized with isoflurane and a 5 mm Whatman paper disc impregnated in 1 N NaOH for 30 seconds was applied to them in the central part of the eye. After the damage, they were washed with abundant physiological saline serum and an antibiotic ointment was applied to them to prevent possible infections in the affected area.
After conducting several in vivo studies with the previously described groups of animals, it could be concluded that the chemical damage occurring after the application of NaOH for 30 seconds caused an excessive lesion for the study which was to be conducted, therefore, it was decided to conduct new experiments reducing the time to 15 seconds.
It was randomly established that the left eye of each animal would act as a control and that the right eye would be the treated eye, such that the same animals acts as a control in addition to being treated. It must be pointed out that all the animals received antibiotic treatment in both eyes daily only during the first week of the study for the purposes of avoiding microbial keratitis.
Starting from 0.15% sodium hyaluronate (Hyabak 10 mL, Thea) without preservatives: • p144: 20 mg were dissolved in 5 ml of eye drops, […] of saturated concentrated NaOH were incorporated, stirring and adding in portions of 5 μl. It was sonicated until solubilization. To adjust the pH, 500 μl of 1M HEPES (4-(2-hydroxyethyl)-1-piperazineethanesulfonic acid) were added, such that the pH changed from 10.5 to 7 • p144 control: 40 μl of saturated NaOH and 500 μl of 1 M HEPES (final concentration of HEPES 50 mM) • p17: 20 mg were dissolved in 5 ml of the eye drops, it was sonicated until complete solubilization and it was incorporated to the vial with a 10 ml syringe and a blue needle to perforate the filter of the contained (final concentration 2 mg/ml) • p17 control: non-manipulated eye drops • Note: The formulations were maintained at 4° C. throughout the study.
Therefore, all the results shown in relation to in vivo will refer to this type of treatment.
The administration of the treatment was initiated twenty-four hours after the damage. After that time a follow-up of the damage was performed, which consisted of taking photographs at days 0, 7, 14, 21, 28 and 35. To take the photographs the animals were anesthetized with isoflurane. Photographs were taken of both the control eye (left) and of the treated eye (right) with and without fluorescein. […]

p-Smad2 [1] = experiment: Immunofluorescence for p-Smad2 on rabbit corneal fibroblasts; type: cell-based; details: TGF-β1 treated fibroblasts
Experimental: (§1) Therefore, Western Blot and immunofluorescence studies were conducted to determine, from cells extracted from the in vivo studies, the signaling pathway used by the peptides administered topically. It should be emphasized that said studies were conducted on fibroblasts from rabbit cornea and not from rat cornea. This decision was made due to the difficulty entailed in isolating fibroblasts from rodent eyes.

p-Smad2 [2] = experiment: Western Blot against p-Smad2 in TGF-β1-treated primary culture of rabbit corneal fibroblasts; type: cell-based; details: for inhibition of the expression of p-Smad2: TGF-β1 treated
Experimental: as §1
(§2) Since the scientific literature repeatedly describes the TGF-β1 signaling pathways, the decision was made to go into depth in such pathways by means of the techniques described in the methodology section. Said pathways involve the study of the Smad protein family, specifically the study of the isoforms Smad2, 2/3 and 7.
(§3) To that end, protein extracts obtained from the primary culture of rabbit fibroblasts were treated with TGF-β1 at concentrations of 0, 3 and 5 ng/ml and, 50 and 200 μg/ml of peptide p17 and p144.

Smad 7 = experiment: Western Blot against Smad7 in rabbit corneal fibroblasts treated with TGF-β; type: cell-based; details: primary culture; peptide 50 and 200 μg/ml
Experimental: as §1, §2, §3

Smad 2/3 = experiment: Western Blot against Smad2/3 in rabbit corneal fibroblasts; type: cell-based; details: primary culture; peptide 50 and 200 μg/ml
Experimental: as §1, §2, §3

| Compound | clinical efficacy of drugs usually used in the treatment of corneal fibrosis (Long-Evans rats; first experiment, Group 1) | translocation of p-Smad2 to the nucleus (p-Smad2 [1]) | effect on the signaling cascade of TGF-β1 (p-Smad2 [2]; primary culture of rabbit corneal fibroblasts, Smad2, Smad2/3, Smad7) | chemical lesions induced after corneal damage with 1N NaOH (Long-Evans rats) | corneal haze, significance treated at the fifth week vs. treated at day 0 (Long-Evans rats) | epithelial closure, significance treated at the fifth week vs. treated at day 0 (Long-Evans rats) | corneal haze, significance control vs. peptide (Long-Evans rats; fifth week) | epithelial closure, significance control vs. peptide (Long-Evans rats; fifth week) | corneal haze (Long-Evans rats) | epithelial closure (Long-Evans rats) | expression of Smad 7 (Smad 7) | expression of Smad 2/3 (Smad 2/3) | inhibition of the expression of p-Smad2 (p-Smad2 [2]; peptide 50 μg/ml) | inhibition of the expression of p-Smad2 (p-Smad2 [2]; peptide 200 μg/ml) | epithelial closure, significance control vs. peptide (Long-Evans rats; fourth week) | corneal haze, significance control vs. peptide (Long-Evans rats; second and fourth week) |
| --- | --- | --- | --- | --- | --- | --- | --- | --- | --- | --- | --- | --- | --- | --- | --- | --- |
| CO[C@@]12[C@H](COC(N)=O)C3=C(C(=O)C(C)=C(N)C3=O)N1C[C@@H]1N[C@@H]12 [mitomycin C, reference compound] | correspond to those described in the scientific literature | – | – | – | – | – | – | – | – | – | – | – | – | – | – | – |
| KRIWFIPRSSWYERA (TGF-beta 1 inhibitor peptide) [p17] | – | did not inhibit | does not have any effect | decreases significantly | highly significant | highly significant | highly significant | very significant | clear decrease; also recorded: significantly reversed | clear decrease; also recorded: significantly reversed | not modified | not affected; also recorded: not modified | – | – | – | – |
| TSLDASIIWAMMQN (TGF-beta 1 inhibitor peptide) [p144] | – | inhibited | – | decreases significantly | highly significant | highly significant | highly significant | highly significant | clear decrease; also recorded: significantly reversed | clear decrease; also recorded: significantly reversed | not modified | not affected; also recorded: not modified | slight inhibition; also recorded: inhibiting the phosphorylation of Smad2 | reaching the values of the controls; also recorded: inhibiting the phosphorylation of Smad2 | significant | significant |
